{"source": "patent US11298314B2", "about": "“Injectable composition for localized fat reduction without pain, edema, and side effects, and method for preparing same” (AMI PHARM CO., LTD., priority 2017, dated 2022)", "key": {"paw of the rats": {"tested_on": "paw of the rats", "assay": "Rat paw edema", "type": "in vivo, Sprague Dawley rats", "settings": "for degree of edema in words: 2 hours after administration, rat paw; for degree of edema, 1 hour after administration / degree of edema, 2 hours after administration / degree of edema, Immediately after administration: 0.1 ml into rat paw", "how_it_was_run": "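Male Sprague Dawley rats (6 weeks old, 170–200 g) received 0.1 ml of PBS or test composition into the paw. Paw thickness measured by caliper before, immediately after, and 1 or 2 h post-injection; edema graded 0–4, with injection-site skin lesions photographed.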"}, "sole of the rat paws": {"tested_on": "sole of the rat paws", "assay": "Measurement of skin lesion (erythema) on rat paw;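 as to grade of skin lesion (erythema), 1 hour after administration: grades − to ++++ mean no to extremely severe erythema versus before injection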;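 as to grade of skin lesion (erythema), 2 hours after administration: grades − to ++++ mean no to extremely severe erythema versus before injection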;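 as to grade of skin lesion (erythema), Immediately after administration: grades − to ++++ mean no to extremely severe erythema versus before injection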", "type": "in vivo, Sprague Dawley rats", "settings": "for skin lesion (erythema) in words: 2 hours after administration", "how_it_was_run": "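Male Sprague Dawley rats (6 weeks, 170–200 g) received 0.1 ml test composition or PBS injected into the paw. Paw thickness measured by caliper before, immediately after, and 1 or 2 h post-injection; sole lesions photographed and graded 0–4.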"}, "[1]": {"tested_on": "tissues of the injected area (rat paw)", "assay": "H&E staining histological test (inflammation) of injected rat paw", "type": "in vivo, Sprague Dawley rats", "settings": "bile acid single composition 1.0% (w/v), injected rat paw", "description": "The tissues of the injected area were dissected, fixed with 10% formalin, and then the specimen was prepared and images were captured using an optical microscope. The degree of inflammation was evaluated as follows."}, "[2]": {"tested_on": "Caspase 3 in 3T3-L1 adipocytes", "assay": "Caspase 3 activity assay", "type": "cell-based", "description": "The Caspase 3 activity assay was performed with the test materials to determine whether the cell death in the result of MTT assay was due to necrosis or apoptosis. The Caspase 3 specifically increases when apoptosis occurs and is a marker of apoptosis. […] The cells were then treated with 50 ul of cell lysis buffer (10 mM Tris-HCl, 10 mM NaH2PO4/NaHPO4, pH 7.5, 130 mM NaCl, 1% Triton X-100 and 10 mM sodium pyrophosphate) and left at 4° C. for […]. The supernatant was collected by centrifugation at 1000× rpm for 1 minute, and protein quantification was performed by BCA method. The 50 μl of reaction buffer (4 mM HEPES, pH 7.5, 10% glycerol, 2 mM dithiothreitol) and 0.5 μl of 4 mM DEVD-p-NA were added to each sample and reacted at 37° C. for 1 hour. Then wavelength was measured with a […] at 405 nm."}, "inguinal fat pad": {"tested_on": "inguinal fat pad", "settings": "0.2 ml s.c. once into inguinal fat pad, 8 days post-injection; listed as DCA single composition"}, "[3]": {"assay": "Formulation stability of PPC injectable preparations: property, transparency, particle size, pH", "settings": "based on PPC 5.0%"}, "3T3-L1 adipocytes": {"tested_on": "3T3-L1 adipocytes", "assay": "Lipolysis assay (glycerol release)", "type": "cell-based", "settings": "48 hours; listed as DCA single", "description": "The glycerol activity assay was performed with the test materials to determine whether the cell death in the MTT assay was due to necrosis or lipolysis. Glycerol is a specific marker that increases when fat breaks down. Abcam Lipolysis Assay Kit (Colorimetric) was used according to the manufacturer's manual, and the method of the test was as follows: […] And then the lysis was induced. […] After adding the glycerol assay complex (50 μl) thereto, the solution was incubated at room temperature for 30 minutes. Absorbance was measured at OD 570 (using standard curve for absolute determination)."}, "[4]": {"settings": "bile acid single composition 1.0% (w/v)"}, "[5]": {"settings": "bile acid single composition 2.5% (w/v)"}, "[6]": {"settings": "bile acid single composition 5.0% (w/v)"}, "[7]": {"settings": "bile acid single composition 7.5% (w/v)"}}, "note": "Entries after “also recorded” stand apart in the source; their conditions may differ."}
{"smiles": "C[C@H](CCC(=O)O)[C@H]1CC[C@H]2[C@@H]3CC[C@@H]4C[C@H](O)CC[C@]4(C)[C@H]3C[C@H](O)[C@]12C", "note": "[DCA, (4R)-4-[(3R,5R,8R,9S,10S,12S,13R,14S,17R)-3,12-dihydroxy-10,13-dimethyl-2,3,4,5,6,7,8,9,11,12,14,15,16,17-tetradecahydro-1H-cyclopenta[a]phenanthren-17-yl]pentanoic acid]", "values": [{"measurement": "degree of edema in words", "setting": "paw of the rats; listed as DCA 1.0%", "value": "severe"}, {"measurement": "degree of edema in words", "setting": "paw of the rats; listed as DCA 2.5%", "value": "“severe” and “extremely severe”"}, {"measurement": "degree of edema, 1 hour after administration", "setting": "paw of the rats; [4]", "value": "+++ (severe edema [+++, (the degree of swelling was 40-60% compared to before the injection)])"}, {"measurement": "degree of edema, 2 hours after administration", "setting": "paw of the rats; [4]", "value": "+++ (severe edema [+++, (the degree of swelling was 40-60% compared to before the injection)])"}, {"measurement": "degree of edema, Immediately after administration", "setting": "paw of the rats; [4]", "value": "++ (moderate edema [++, (the degree of swelling was 20-40% compared to before the injection)])"}, {"measurement": "degree of edema, 1 hour after administration", "setting": "paw of the rats; [5]", "value": "++++ (extremely severe edema [++++, (the degree of swelling was 60% or more compared to before the injection)])"}, {"measurement": "degree of edema, 2 hours after administration", "setting": "paw of the rats; [5]", "value": "++++ (extremely severe edema [++++, (the degree of swelling was 60% or more compared to before the injection)])"}, {"measurement": "degree of edema, Immediately after administration", "setting": "paw of the rats; [5]", "value": "++ (moderate edema [++, (the degree of swelling was 20-40% compared to before the injection)])"}, {"measurement": "degree of edema, 1 hour after administration", "setting": "paw of the rats; [6]", "value": "++++ (extremely severe edema [++++, (the degree of swelling was 60% or more compared to before the injection)])"}, {"measurement": "degree of edema, 2 hours after administration", "setting": "paw of the rats; [6]", "value": "++++ (extremely severe edema [++++, (the degree of swelling was 60% or more compared to before the injection)])"}, {"measurement": "degree of edema, Immediately after administration", "setting": "paw of the rats; [6]", "value": "++ (moderate edema [++, (the degree of swelling was 20-40% compared to before the injection)])"}, {"measurement": "degree of edema, 1 hour after administration", "setting": "paw of the rats; [7]", "value": "++++ (extremely severe edema [++++, (the degree of swelling was 60% or more compared to before the injection)])"}, {"measurement": "degree of edema, 2 hours after administration", "setting": "paw of the rats; [7]", "value": "++++ (extremely severe edema [++++, (the degree of swelling was 60% or more compared to before the injection)])"}, {"measurement": "degree of edema, Immediately after administration", "setting": "paw of the rats; [7]", "value": "++ (moderate edema [++, (the degree of swelling was 20-40% compared to before the injection)])"}, {"measurement": "skin lesion (erythema) in words", "setting": "sole of the rat paws; listed as DCA 1.0%", "value": "Moderate"}, {"measurement": "skin lesion (erythema) in words", "setting": "sole of the rat paws; listed as DCA 2.5%", "value": "“severe” and “extremely severe”"}, {"measurement": "grade of skin lesion (erythema), 1 hour after administration", "setting": "sole of the rat paws; [4]", "value": "++"}, {"measurement": "grade of skin lesion (erythema), 2 hours after administration", "setting": "sole of the rat paws; [4]", "value": "++"}, {"measurement": "grade of skin lesion (erythema), Immediately after administration", "setting": "sole of the rat paws; [4]", "value": "++"}, {"measurement": "grade of skin lesion (erythema), 1 hour after administration", "setting": "sole of the rat paws; [5]", "value": "++++"}, {"measurement": "grade of skin lesion (erythema), 2 hours after administration", "setting": "sole of the rat paws; [5]", "value": "+++"}, {"measurement": "grade of skin lesion (erythema), Immediately after administration", "setting": "sole of the rat paws; [5]", "value": "++"}, {"measurement": "grade of skin lesion (erythema), 1 hour after administration", "setting": "sole of the rat paws; [6]", "value": "++++"}, {"measurement": "grade of skin lesion (erythema), 2 hours after administration", "setting": "sole of the rat paws; [6]", "value": "++++"}, {"measurement": "grade of skin lesion (erythema), Immediately after administration", "setting": "sole of the rat paws; [6]", "value": "++"}, {"measurement": "grade of skin lesion (erythema), 1 hour after administration", "setting": "sole of the rat paws; [7]", "value": "++++"}, {"measurement": "grade of skin lesion (erythema), 2 hours after administration", "setting": "sole of the rat paws; [7]", "value": "++++"}, {"measurement": "grade of skin lesion (erythema), Immediately after administration", "setting": "sole of the rat paws; [7]", "value": "++"}, {"measurement": "Inflammation (H&E), BA % (w/v) 1.0", "setting": "[1]", "value": "+++"}, {"measurement": "caspase-3 activity", "setting": "[2]; after 48 hours", "value": "returned to pretreatment levels"}, {"measurement": "caspase-3 activity", "setting": "[2]; up to 24 hours", "value": "some caspase-3 activity"}, {"measurement": "inflammation at the site of administration, dermal and epidermal tissues", "setting": "inguinal fat pad", "value": "severe inflammation was induced"}, {"measurement": "bile acid concentration at which stable injectable preparations can be made", "setting": "[3]", "value": "≥ 2.1", "unit": "%"}, {"measurement": "glycerol release / cytolytic activity", "setting": "3T3-L1 adipocytes", "value": "slightly higher cytolytic activity than at 24 hours; also recorded: slightly higher cytolytic activity than that of 24 hours"}]}
